Experimental data from patent publication US12344626B2, “Pharmaceutical compounds and therapeutic methods” (RUTGERS, THE STATE UNIVERSITY OF NEW JERSEY, priority 2019, dated 2025).
Entries after “also recorded” stand apart in the source; their conditions may differ.

Key:
[1] = Solubility of zinc complexes; assay type: physicochemical
human tumor cell lines = test: Cell growth inhibition assay (Calcein AM); assay type: cell-based; settings: for EC50: Calcein AM, incubation for 3 days; for Fold (Zn-1/compound) / Fold (compound/Zn-1): ratio of EC50s
Experimental: (§1) Cell growth inhibition assay using human tumor cell lines with different p53 status (wildtype, null, p53-R175H or other zinc binding deficient mutants) are employed to determine if a test compound functions as a zinc metallochaperone to restore wildtype p53 functions. Five thousand cells per well are cultured in 96-well plate to reach the 50% confluence on the second day when treated with serial dilutions of the compounds. Growth is measured by Calcein AM assay after incubation for 72 hours.
The cell growth inhibition assay was performed by Calcein AM assay (Trevigen). Five thousand cells per well were cultured in 96-well plate to reach the 50% confluence on the second day when treated with serial dilutions of the compounds. Growth was measured by Calcein AM assay (Trevigen) and Victor Plate reader instrument (PerkinElmer) after incubation for 3 days.

p53R175H cells = test: Potency against p53R175H cells in vitro, compared with the monomer from Zn-1; assay type: cell-based
Experimental: as §1

mutant p53 [2] = target: T1, mutant p53 (Homo sapiens, UniProt P04637, R175H); test: Immunofluorescent staining with p53 conformation specific antibodies (PAB240, PAB1620); assay type: cell-based; settings: PAB 1620 (wild type specific)
T1 construct: endogenous in cells; host or cells: p53-R175H cells (e.g. TOV112D)
Experimental: An immunofluorescent staining using p53 conformation specific antibodies is used to determine if a test compound could induce the mutant p53 protein refolding to a wildtype conformation. The p53-R175H cells (e.g. TOV112D) cultured in DMEM+10% FBS are treated with a test compound for 6 hours, then fixed and stained with the antibodies PAB1620 (recognizing WT conformation) and PAB240 (recognizing misfolded/unfolded conformation) respectively.

[3] = tested on: p53 target genes p21, PUMA and GDF15; test: Quantitative PCR of p53 target genes (restoration of wild type transcriptional function); assay type: cell-based; settings: for p21, PUMA and GDF15 levels: quantitative PCR
mutant p53 [4] = target: T1, mutant p53; test: Cell growth inhibition after mutant p53 knock-down using siRNA; assay type: cell-based; settings: mutant p53 knocked down using an siRNA
COX1(h) = target: T2, COX1(h) (Homo sapiens, UniProt P23219); test: CEREP-44 Safety Screen: COX1; assay type: biochemical; parameters: dose or concentration left out as unconfirmed
T2 construct: Eurofins (Cerep) SafetyScreen44 panel, contract screen P270

COX2(h) = target: T3, COX2(h) (Homo sapiens, UniProt P35354); test: CEREP-44 Safety Screen: COX2; assay type: biochemical; parameters: dose or concentration left out as unconfirmed
T3 construct: Eurofins (Cerep) SafetyScreen44 panel, contract screen P270
T3 sequence (P35354 18-604): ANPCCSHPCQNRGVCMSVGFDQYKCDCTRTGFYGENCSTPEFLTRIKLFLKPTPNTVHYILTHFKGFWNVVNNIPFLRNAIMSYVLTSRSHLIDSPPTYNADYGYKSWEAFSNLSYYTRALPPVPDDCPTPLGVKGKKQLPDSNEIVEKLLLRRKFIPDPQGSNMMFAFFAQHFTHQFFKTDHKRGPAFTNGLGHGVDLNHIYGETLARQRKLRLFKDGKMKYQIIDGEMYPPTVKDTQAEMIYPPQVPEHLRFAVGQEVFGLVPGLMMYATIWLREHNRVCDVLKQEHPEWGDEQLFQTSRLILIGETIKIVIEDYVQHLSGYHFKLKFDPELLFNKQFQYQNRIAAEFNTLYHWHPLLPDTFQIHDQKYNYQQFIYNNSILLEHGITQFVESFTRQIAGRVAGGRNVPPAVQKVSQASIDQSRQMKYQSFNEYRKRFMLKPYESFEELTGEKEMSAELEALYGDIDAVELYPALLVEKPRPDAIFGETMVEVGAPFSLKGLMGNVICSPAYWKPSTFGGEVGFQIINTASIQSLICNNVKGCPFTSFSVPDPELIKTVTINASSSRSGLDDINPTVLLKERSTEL

5-HT2B = target: T4, 5-HT2B (Homo sapiens, UniProt P41595); test: CEREP-44 Safety Screen: 5-HT2B; assay type: binding; parameters: dose or concentration left out as unconfirmed
T4 construct: Eurofins (Cerep) SafetyScreen44 panel, contract screen P270
T4 sequence (P41595 whole entry): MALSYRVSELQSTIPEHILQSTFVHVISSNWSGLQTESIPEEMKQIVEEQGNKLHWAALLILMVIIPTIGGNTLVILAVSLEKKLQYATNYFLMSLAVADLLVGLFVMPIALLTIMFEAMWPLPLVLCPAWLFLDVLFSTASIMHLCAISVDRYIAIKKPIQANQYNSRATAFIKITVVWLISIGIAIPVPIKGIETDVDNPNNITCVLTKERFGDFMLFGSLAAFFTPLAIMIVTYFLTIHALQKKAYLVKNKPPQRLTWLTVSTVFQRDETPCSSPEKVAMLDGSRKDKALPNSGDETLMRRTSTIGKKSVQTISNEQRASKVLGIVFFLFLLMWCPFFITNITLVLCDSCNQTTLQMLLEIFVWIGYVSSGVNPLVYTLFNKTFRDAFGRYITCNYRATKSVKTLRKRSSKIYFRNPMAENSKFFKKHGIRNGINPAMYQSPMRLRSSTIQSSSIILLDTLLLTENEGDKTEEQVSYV

T2 sequence (P23219 24-599): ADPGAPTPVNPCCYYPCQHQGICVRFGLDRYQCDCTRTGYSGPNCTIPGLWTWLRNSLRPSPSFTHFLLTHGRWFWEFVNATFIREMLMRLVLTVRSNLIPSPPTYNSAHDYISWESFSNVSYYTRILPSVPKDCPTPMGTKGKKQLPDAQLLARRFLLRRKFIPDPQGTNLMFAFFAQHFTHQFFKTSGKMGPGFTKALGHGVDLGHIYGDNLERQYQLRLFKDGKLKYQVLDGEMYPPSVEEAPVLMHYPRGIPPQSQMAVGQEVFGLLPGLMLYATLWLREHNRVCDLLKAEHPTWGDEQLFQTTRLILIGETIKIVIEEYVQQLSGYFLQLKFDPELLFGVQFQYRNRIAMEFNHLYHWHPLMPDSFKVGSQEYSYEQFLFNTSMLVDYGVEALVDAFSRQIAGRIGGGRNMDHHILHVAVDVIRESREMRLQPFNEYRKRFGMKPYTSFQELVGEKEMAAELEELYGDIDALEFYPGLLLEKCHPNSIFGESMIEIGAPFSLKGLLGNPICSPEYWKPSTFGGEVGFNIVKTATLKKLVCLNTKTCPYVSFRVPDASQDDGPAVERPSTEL

| Compound | Solubility DMSO 4 mg/ml [1] | Solubility DMSO 10 mg/ml [1] | Solubility EtOH 1 mg/ml [1] | Solubility H2O:DMSO 1:1 0.5 mg/mL [1] | EC50 (human tumor cell lines) | Fold (Zn-1/compound) (human tumor cell lines) | Fold (compound/Zn-1) (human tumor cell lines) | More potent than the monomer from Zn-1 (p53R175H cells) | Solubility EtOH 2 mg/ml [1] | also measured |
| --- | --- | --- | --- | --- | --- | --- | --- | --- | --- | --- |
| COc1ccnc(/C(C)=N/NC(=S)N(C)C)c1.COc1ccnc(/C(C)=N/NC(=S)N(C)C)c1.[Zn] [Zn-11, Zn[(E)-2-(1-(4-methoxypyridin-2-yl)ethylidene)-N,N-dimethylhydrazine-1-carbothioamide]2] | Yes | Yes | Partial | No at 0.5 | 0.22 nM | 12.2 | 0.1 | 209 fold | – | Qualitative relative solubility in 1:1 DMSO:water ([1]; H2O:DMSO 1:1 at 0.5 mg/mL, compared among Zn-8, Zn-11 and Zn-14): qualitatively more soluble; also recorded: *Qualitatively slightly more soluble compared with Zn-8 and Zn-14 |
| C/C(=N\NC(=S)N1CCC1)c1ccccn1 [ZMC-1, reference compound] | – | – | – | – | – | – | – | – | – | Solubility DMSO (3 mg/ml) ([1]; DMSO 4 mg/ml column, cell annotated (3 mg/ml)): Yes |
| Zn[(E)-2-(1-(4-(2-methoxyethoxy)pyridin-2-yl)ethylidene)-N,N-dimethylhydrazine-1-carbothioamide]2 [ZN-8] | Yes | Yes | YES | No | 0.37 nM | 7.3 | 0.1 | 14 fold | Partial | Wild type conformation change of mutant p53 (mutant p53 [2]): induces a wild type conformation change; p21, PUMA and GDF15 levels [3]: markedly induced; Increases of p21, PUMA and GDF15 in p53R175H knock-out cells ([3]; same cell line with mutant p53R175H knocked out using CRISPR): not observed; Cell growth inhibition after mutant p53 knock-down (mutant p53 [4]): attenuated by more than a log fold; COX1(h) % Inh. (COX1(h)): 54.8 % Inh.; COX2(h) % Inh. (COX2(h)): 50.7 % Inh.; 5-HT2B % Inh. (5-HT2B): 58.7 % Inh. |
| Zn[(E)-N,N-dimethyl-2-(1-(4-(2-morpholinoethoxy)pyridin-2-yl)ethylidene)hydrazine-1-carbothioamide]2 [ZN-9] | – | Yes | – | – | 18.1 nM | 0.1 | 6.7 | – | Yes | – |
| Zn[(E)-N,N-dimethyl-2-(1-(4-(2-morpholinoethoxy)pyridin-2-yl)ethylidene)hydrazine-1-carbothioamide]2 bis mesylate salt [ZN-9 Mesylate salt] | – | – | – | – | – | – | – | – | – | Solubility 0.9% Saline ([1]; 0.9% Saline): 5000 to 10000 µg/mL |
| C/C(=N\NC(=S)N1CCC1)c1ccccn1 [ZN-1, reference compound] | Yes | No | No | No | – | – | – | 3 fold | No | EC50 (human tumor cell lines; Homo sapiens, 72 h): 2.69 nM; p21, PUMA and GDF15 levels [3]: markedly induced |
| C/C(=N\NC(=S)N(C)C)c1ccc(O[C@H]2CCOC2)cn1.C/C(=N\NC(=S)N(C)C)c1ccc(O[C@H]2CCOC2)cn1.[Zn] [Zn-15, Zn[(S,E)-N,N-dimethyl-2-(1-(5-((tetrahydrofuran-3-yl)oxy)pyridin-2-yl)ethylidene)hydrazine-1-carbothioamide]2] | – | – | – | – | 7.08 nM | 2.6 | 0.4 | – | – | – |
